According to the supplement of paper PMC4862054:

system: HCC1143; test: normalised response (% of control), CellTiter-Glo; higher = more viable cells (100 = DMSO, 0 = benzethonium chloride kill control); conditions: incubation time: 72 h
In short: (§1)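 Each value is the plate-normalised signal at one concentration of the series. Breast cancer cell lines (20 µl suspension) were incubated 72 h in 384-well plates with compound at 5 concentrations in 10-fold steps over a compound-specific 10,000-fold range. CellTox Green and then CellTiter-Glo were read, and each plate was scaled to 0.1 % DMSO (100) and a positive kill control (0).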

Compared with CN[C@@H](C)C(=O)N[C@H]1CN(C(=O)CC(C)C)CC[C@H]2CC[C@@H](C(=O)NC(c3ccccc3)c3ccccc3)N2C1=O [AT-406] (10 nM), O=C(O)CNC(=O)c1c(O)c2ccccc2n(Cc2ccccc2)c1=O [IOX-2] (50 nM) is lower in normalised response: 95.5% for the first, 94.5% for the second.

First: Cc1cc(Nc2nc(N[C@@H](C)c3ncc(F)cn3)ncc2Cl)[nH]n1 [AZD1480] (1 nM)
Second: CC[C@H](CO)Nc1nc(NCc2ccccc2)c2ncn(C(C)C)c2n1 [Seliciclib] (10 nM)
The normalised response of the first is lower: 95.7% for the first, 98.7% for the second.

Going from CNC(=O)c1ccccc1Sc1ccc2c(/C=C/c3ccccn3)n[nH]c2c1 [Axitinib] (10 nM) to CC(C)(C)c1nc(-c2cccc(NS(=O)(=O)c3c(F)cccc3F)c2F)c(-c2ccnc(N)n2)s1 [Dabrafenib] (2.5 nM), the normalised response rises from 102% to 105%.

Compared with CC(O)(CS(=O)(=O)c1ccc(F)cc1)C(=O)Nc1ccc(C#N)c(C(F)(F)F)c1 (stereo not drawn) [Bicalutamide] (10 nM), O=[N+]([O-])c1ccc2c(c1)S(=O)(=O)C=C2 [Stattic] (50 nM) is higher in normalised response: 105% for the first, 106% for the second.

First: CCNC(=O)CCC/C=C\C[C@@H]1[C@@H](/C=C/[C@@H](O)CCc2ccccc2)[C@H](O)C[C@@H]1O [Bimatoprost] (5.5 nM)
Second: O=C(CCCCCCC(=O)Nc1ccccc1)NO [Vorinostat] (10 nM)
The normalised response of the first is higher: 99.4% for the first, 98.4% for the second.

First: COc1cc(Nc2c(C#N)cnc3cc(OCCCN4CCN(C)CC4)c(OC)cc23)c(Cl)cc1Cl [Bosutinib] (10 nM)
Second: CCN(CC)CCCC(C)Nc1ccnc2cc(Cl)ccc12 (stereo not drawn) [Chloroquine] (10 nM)
The normalised response of the first is lower: 100% for the first, 104% for the second.

Going from CC1(COc2ccc3c(c2)ncn3-c2ccc3cccc(N4CCC(N)CC4)c3n2)COC1 [Crenolanib] (10 nM) to CC(=O)[C@]1(O)Cc2c(O)c3c(c(O)c2[C@@H](O[C@H]2C[C@H](N)[C@H](O)[C@H](C)O2)C1)C(=O)c1ccccc1C3=O [Idarubicin] (1 nM), the normalised response rises from 105% to 107%.

First: Nc1ccn([C@@H]2O[C@H](CO)[C@@H](O)C2(F)F)c(=O)n1 [Gemcitabine] (1 nM)
Second: C/C(=C\c1csc(C)n1)[C@@H]1C[C@@H]2O[C@]2(C)CCC[C@H](C)[C@H](O)[C@@H](C)C(=O)C(C)(C)[C@@H](O)CC(=O)N1 [Ixabepilone] (1 nM)
The normalised response of the first is higher: 100% for the first, 98.1% for the second.

CN(C)C(=N)NC(=N)N [Metformin] (100 nM) was tested, and the normalised response was 101%.

system: BT-474; test: as above; conditions: incubation time: 72 h
In short: as §1

Compared with CCn1c(C(=O)N(C2CC2)C2CC2)cc2c3c(ncn3C)c(Nc3cc(C)n(C)n3)nc21 (1 nM), CC[C@H](CO)Nc1nc(NCc2ccccc2)c2ncn(C(C)C)c2n1 [Seliciclib] (10 nM) is higher in normalised response: 92.6% for the first, 102% for the second.

Compared with CCn1c(C(=O)N(C2CC2)C2CC2)cc2c3c(ncn3C)c(Nc3cc(C)n(C)n3)nc21 (10 nM), CC1(COc2ccc3c(c2)ncn3-c2ccc3cccc(N4CCC(N)CC4)c3n2)COC1 [Crenolanib] (10 nM) is higher in normalised response: 93.5% for the first, 105% for the second.

COc1ccc(S(=O)(=O)Nc2cccnc2Nc2ccc(O)cc2)cc1 [ABT-751] (10 nM) and CC(C)(C)c1nc(-c2cccc(NS(=O)(=O)c3c(F)cccc3F)c2F)c(-c2ccnc(N)n2)s1 [Dabrafenib] (2.5 nM) are the same in normalised response: 101% for the first, 101% for the second.

Compared with CN[C@@H](C)C(=O)N[C@H]1CN(C(=O)CC(C)C)CC[C@H]2CC[C@@H](C(=O)NC(c3ccccc3)c3ccccc3)N2C1=O [AT-406] (1 nM), O=C(O)CNC(=O)c1c(O)c2ccccc2n(Cc2ccccc2)c1=O [IOX-2] (50 nM) is lower in normalised response: 101% for the first, 96.9% for the second.

Compared with CN[C@@H](C)C(=O)N[C@H]1CN(C(=O)CC(C)C)CC[C@H]2CC[C@@H](C(=O)NC(c3ccccc3)c3ccccc3)N2C1=O [AT-406] (10 nM), CNC(=O)c1ccccc1Sc1ccc2c(/C=C/c3ccccn3)n[nH]c2c1 [Axitinib] (10 nM) is higher in normalised response: 94.3% for the first, 107% for the second.

Compared with Cc1cc(Nc2nc(N[C@@H](C)c3ncc(F)cn3)ncc2Cl)[nH]n1 [AZD1480] (1 nM), COc1cc(Nc2c(C#N)cnc3cc(OCCCN4CCN(C)CC4)c(OC)cc23)c(Cl)cc1Cl [Bosutinib] (10 nM) is lower in normalised response: 102% for the first, 100% for the second.

Going from CC(O)(CS(=O)(=O)c1ccc(F)cc1)C(=O)Nc1ccc(C#N)c(C(F)(F)F)c1 (stereo not drawn) [Bicalutamide] (10 nM) to O=[N+]([O-])c1ccc2c(c1)S(=O)(=O)C=C2 [Stattic] (50 nM), the normalised response falls from 107% to 98.6%.

Compared with CCNC(=O)CCC/C=C\C[C@@H]1[C@@H](/C=C/[C@@H](O)CCc2ccccc2)[C@H](O)C[C@@H]1O [Bimatoprost] (5.5 nM), O=C(CCCCCCC(=O)Nc1ccccc1)NO [Vorinostat] (10 nM) is higher in normalised response: 96.6% for the first, 97.6% for the second.

Going from CCN(CC)CCCC(C)Nc1ccnc2cc(Cl)ccc12 (stereo not drawn) [Chloroquine] (10 nM) to CC(=O)[C@]1(O)Cc2c(O)c3c(c(O)c2[C@@H](O[C@H]2C[C@H](N)[C@H](O)[C@H](C)O2)C1)C(=O)c1ccccc1C3=O [Idarubicin] (1 nM), the normalised response rises from 96.5% to 111%.

Going from Nc1ccn([C@@H]2O[C@H](CO)[C@@H](O)C2(F)F)c(=O)n1 [Gemcitabine] (1 nM) to C/C(=C\c1csc(C)n1)[C@@H]1C[C@@H]2O[C@]2(C)CCC[C@H](C)[C@H](O)[C@@H](C)C(=O)C(C)(C)[C@@H](O)CC(=O)N1 [Ixabepilone] (1 nM), the normalised response rises from 100% to 106%.

CN(C)C(=N)NC(=N)N [Metformin] (100 nM) was tested, and the normalised response was 91.7%.

system: MDA-MB-436; test: as above; conditions: incubation time: 72 h
In short: as §1

Going from CCn1c(C(=O)N(C2CC2)C2CC2)cc2c3c(ncn3C)c(Nc3cc(C)n(C)n3)nc21 (1 nM) to COc1cc(Nc2c(C#N)cnc3cc(OCCCN4CCN(C)CC4)c(OC)cc23)c(Cl)cc1Cl [Bosutinib] (10 nM), the normalised response falls from 97.9% to 97.6%.

Going from CCn1c(C(=O)N(C2CC2)C2CC2)cc2c3c(ncn3C)c(Nc3cc(C)n(C)n3)nc21 (10 nM) to Cc1cc(Nc2nc(N[C@@H](C)c3ncc(F)cn3)ncc2Cl)[nH]n1 [AZD1480] (1 nM), the normalised response falls from 103% to 101%.

Compared with COc1ccc(S(=O)(=O)Nc2cccnc2Nc2ccc(O)cc2)cc1 [ABT-751] (10 nM), CC(O)(CS(=O)(=O)c1ccc(F)cc1)C(=O)Nc1ccc(C#N)c(C(F)(F)F)c1 (stereo not drawn) [Bicalutamide] (10 nM) is higher in normalised response: 108% for the first, 111% for the second.

Going from CN[C@@H](C)C(=O)N[C@H]1CN(C(=O)CC(C)C)CC[C@H]2CC[C@@H](C(=O)NC(c3ccccc3)c3ccccc3)N2C1=O [AT-406] (1 nM) to CNC(=O)c1ccccc1Sc1ccc2c(/C=C/c3ccccn3)n[nH]c2c1 [Axitinib] (10 nM), the normalised response falls from 108% to 103%.

Compared with CN[C@@H](C)C(=O)N[C@H]1CN(C(=O)CC(C)C)CC[C@H]2CC[C@@H](C(=O)NC(c3ccccc3)c3ccccc3)N2C1=O [AT-406] (10 nM), CCNC(=O)CCC/C=C\C[C@@H]1[C@@H](/C=C/[C@@H](O)CCc2ccccc2)[C@H](O)C[C@@H]1O [Bimatoprost] (5.5 nM) is higher in normalised response: 97.5% for the first, 102% for the second.
